According to PMC5695136 (Theranostics, 2017):

Experiments:
PSMA+ LNCaP cells = conditions: equal experimental set up; cited from earlier work
[1] = First in-human PET/CT imaging; format: in vivo; conditions: mean SUV averaged over right and left side and all patients (three patients)

SUV kidneys [1]: 30.5
SMILES: O=C([O-])CN(CCN(CC(=O)[O-])Cc1cc(CCC(=O)NCCCCCC(=O)NCCCC[C@H](NC(=O)N[C@@H](CCC(=O)O)C(=O)O)C(=O)O)ccc1[O-])Cc1cc(CCC(=O)O)ccc1[O-].[68Ga+3].[OH3+] [[^68Ga]Ga-PSMA-11]
Internalization±SD (PSMA+ LNCaP cells): 9.47±2.56 %IA/10^6 cells
